Publication PMC9863607, “Combined Use of Antimicrobial Peptides with Antiseptics against Multidrug-Resistant Bacteria: Pros and Cons” (Pharmaceutics, 2023)
Read-outs that look alike come from different tables or passages of the source. Peptide text beside a SMILES is read from it.

Assays:
S. aureus 1399/17 = assay: microbe, parasite or virus in culture; assay type: cell-based, Staphylococcus aureus
Protocol: (§1) In this regard the test plates were preincubated for 1 h at 37 °C with 0.1% bovine serum albumin (BSA) in distilled water before use. Bacteria were grown overnight at 37 °C with shaking in 2.1% Müller–Hinton broth (MHB), and then a small aliquot was transferred into the fresh portion of the same medium for another 2–3 h on the day of the experiment to provide us with the log phase bacterial suspension. Concentration of bacterial cells in suspension was evaluated based on absorbance at 620 nm and diluted down to 1 × 10^6 CFU/mL with MHB. Equal volumes of the prepared bacterial suspension in MHB and two-fold serial dilutions of the antimicrobials in 10 mM sodium phosphate (Na-P) buffer (pH 7.4) with 0.1% BSA were mixed and incubated overnight at 37 °C. The lowest concentration where no bacterial growth was observed the next day under visual examination was considered the minimal inhibitory concentration. The test was repeated at least three times, and the final MIC value was established as a median result. Each experiment was conducted in triplicates. Terasaki microplates (10 µL end volume, V-shaped bottom; Sarstedt, Nümbrecht, Germany) were used.

[1] = system: normal human dermal fibroblasts; assay: MTT test and/or direct cell count by light microscopy; settings: for FECI, toxicity toward fibroblasts: assessed from the ½+½ and ¼+¼ MEC combinations
Text: Potential cytotoxic effects of the test substances and their combinations toward human dermal fibroblasts were observed using a MTT dye [3-(4,5-dimethylthiazol-2-yl)-2,5-diphenyltetrazolium bromide]-based test first proposed by Mosmann. MTT basically functions on the same principle as resazurin: it is reduced in metabolically active cells to the product named formazan, which differs from MTT by its properties. While MTT is yellow, formazan is blue and water-insoluble. Normal human fibroblasts initially obtained from the Pokrovsky Stem Cell Bank (Saint Petersburg, Russia) were cultured at 37 °C and 5% CO2 in DMEM medium supplemented with 10% fetal bovine serum, glutamine, and Pen-Strep. The day before, experiment cells were detached from the culture flasks using Trypsin-Versene reagent, collected into a sterile 15 mL tube, centrifuged for 10 min at 300× g to discard the previous medium, and resuspended in serum-, glutamine-, and antibiotic-free DMEM. Cells were counted using a hemocytometer; their concentration was adjusted, and they were distributed at 10,000–15,000 cells per well in 90 µL in a 96-well sterile treated flat-bottom plate and left at 37 °C and 5% CO2 overnight to properly adhere. The following day, their well-being was visually checked using an inverted light microscope, and the wells were supplied with 10 µL of the test substances or their combinations in DMEM in 10 times the final desired concentrations. Experimental samples were made in triplicates. […] At least six repeats of each type of the control samples were made. Test plates were incubated at 37 °C and 5% CO2 overnight, and 10 µL of the 5 mg/mL MTT in PBS were introduced into each well the next morning. After another 4 h of incubation at the same conditions, formed formazan crystals were dissolved by adding 110 µL of isopropanol containing 0.04 M HCl (the latter is used to “switch” phenol red pH indicator in DMEM from red to yellow). Then, each sample was thoroughly mixed by repetitive pipetting, and formazan concentration was spectrophotometrically evaluated measuring OD at 540 nm with subtraction of the background at 690 nm.
We resorted to the direct cell count in case the MTT test was not applicable or required verification of some sort. This idea was borrowed from the crystal violet assay for determining viability of cultured cells and is based on the fact that, once dead, adherent cells detach from the surface. Since we were not aiming to analyze a large number of samples in this manner, we simply skipped the staining step of the crystal violet assay, which is also slightly difficult and brings a risk of detaching cells during washing. We proceeded with the same protocol as for the MTT test down to the step of adding MTT dye. Then, instead, we used an inverted light microscope (magnification ×500) to calculate the number of attached cells in 10 fields of view in each experimental well of interest and compared it with the count for the 100% viability control wells. The exact effect was evaluated as viable cells (%) = mean number of adhered cells in a sample / mean number of adhered cells in 100% viability control × 100%.
While analyzing toxicity toward eukaryotic cells, components were mixed in concentrations of ½ MEC (AMP) + ½ MEC (AS) (that can provide the fractional index = 1, denoting additivity, if found effective) and ¼ MEC (AMP) + ¼ MEC (AS) (that can provide the fractional index = 0.5, denoting synergy, if found effective).
Cytotoxic effects of individual substances and their combinations were also evaluated against cultured normal human dermal fibroblasts. We used MTT tests and/or light microscopy for the direct cell count.

P. aeruginosa MDR 522/17 = assay: Crystal violet assay of biofilm formation; assay type: cell-based, Pseudomonas aeruginosa; settings: median of 3 independent experiments; for Minimal FECI, AMP + CAPB, biofilm formation: combination with cocamidopropyl betaine; for Minimal FECI, AMP + CAPB, biofilm formation / Minimal FECI, AMP + DXD, biofilm formation / Minimal FECI, AMP + ETA, biofilm formation / Minimal FECI, AMP + PVG, biofilm formation / Minimal FECI, AMP + PTS, biofilm formation: sub-microbicidal concentrations; for Minimal FECI, AMP + DXD, biofilm formation: combination with dioxydin; for Minimal FECI, AMP + ETA, biofilm formation: combination with etidronic acid; for Minimal FECI, AMP + PVG, biofilm formation: combination with poviargolum; for Minimal FECI, AMP + PTS, biofilm formation: combination with prontosan; for MECBF partially inhibiting bacterial biofilms: minimal concentration with significant decrease vs intact control (Mann–Whitney, p < 0.05), 24 h, 37 °C, MHB
Protocol: The impact of the tested antimicrobials and their combinations on the formation of biofilms was quantitated as per the crystal violet assay protocol published by Merritt et al.. Testing was performed in 96-well immunological plates with U-shaped bottoms. […] Experimental samples were quadruplicated, and control without antimicrobials was octuplicated.
Then, the liquid content of the test plates was discarded, and the plates were gently washed in still water from residual traces of unattached planktonic bacteria. Each well was supplied with 125 μL 0.1% aqueous solution of crystal violet dye for 10 min at room temperature to stain biofilm components left attached to the surface. After staining, the plates were washed with clear water once more to remove excessive dye and left to air-dry. To quantify the amount of the bound dye corresponding to the thickness of the formed biofilm, it was redissolved in 30% acetic acid, 200 μL of which was introduced into each well. After 15 min at room temperature, the content of the wells was mixed by repetitive pipetting to ensure complete dye extraction, and 125 μL of each sample was transferred well-by-well into 96-well clear flat-bottom plates for spectrophotometric examination. OD was measured at 580 nm. Final results were calculated as medians based on three independent experiments.
Analyzing the combined action of AMPs and antiseptics (AS) in sub-microbicidal concentrations toward biofilms, we adopted the same approach based on the calculation of fractional indices as the one we used while testing antimicrobial activity on planktonic bacteria. For combinations, the series of concentrations from [MECBF(AMP) + MECBF(AS)], [½MECBF(AMP) + ½MECBF(AS)] and down to [1/32 × MECBF(AMP) + 1/32 × MECBF(AS)] was analyzed. […] The minimal FECI > 4 was interpreted as antagonism, FECI ≤ 0.5 as synergy, 0.5 < FECI ≤ 1 as additivity, and 1 < FECI ≤ 4 as independent action.

E. coli ESBL 521/17 = assay: microbe, parasite or virus in culture; assay type: cell-based, Escherichia coli
Protocol: as §1

[2] = antiseptics and surfactants, MHB, overnight 37 °C, median of 3–4 independent experiments, prontosan as polyhexanide
[3] = antiseptics and surfactants, serum-free DMEM, overnight, median of 3 independent experiments, prontosan as polyhexanide, etidronic acid primarily by direct cell count

## CC[C@H](C)[C@H](NC(=O)[C@H](CCCNC(=N)N)NC(=O)[C@@H](NC(=O)[C@@H]1CCCN1C(=O)[C@@H]1CCCN1C(=O)[C@H](CCCNC(=N)N)NC(=O)[C@H](CCCNC(=N)N)NC(=O)[C@H](Cc1ccccc1)NC(=O)[C@@H]1CCCN1C(=O)[C@H](CC(C)C)NC(=O)[C@H](CCCNC(=N)N)NC(=O)[C@H](Cc1ccccc1)NC(=O)[C@@H](N)CCCNC(=N)N)[C@@H](C)CC)C(=O)N[C@@H](Cc1c[nH]cn1)C(=O)N1CCC[C@H]1C(=O)N1CCC[C@H]1C(=O)N1CCC[C@H]1C(=O)N[C@@H](Cc1ccccc1)C(=O)N[C@@H](Cc1ccc(O)cc1)C(=O)N1CCC[C@H]1C(=O)N1CCC[C@H]1C(=O)N[C@@H](Cc1ccccc1)C(=O)N[C@@H](CCCNC(=N)N)C(=O)N[C@@H](CCCNC(=N)N)C(=O)N[C@@H](Cc1ccccc1)C(=O)N[C@@H](CC(C)C)C(=O)O [ChBac3.4] (H-RFRLPFRRPPIRIHPPPFYPPFRRFL-OH; N-terminus assumed)
S. aureus 1399/17; 1399/17, 1 h
  MIC: 3.1 µM
[1]
  MECF of cytotoxic action toward normal human dermal fibroblasts: 40 µM
P. aeruginosa MDR 522/17
  Minimal FECI, AMP + CAPB, biofilm formation: 0.5
  Minimal FECI, AMP + DXD, biofilm formation: 1.12
  Minimal FECI, AMP + ETA, biofilm formation: 2
  Minimal FECI, AMP + PVG, biofilm formation: 1
  Minimal FECI, AMP + PTS, biofilm formation: 0.12
  MECBF partially inhibiting bacterial biofilms: 1/64
E. coli ESBL 521/17; ESBL 521/17, 1 h
  MIC: 3.1 µM

## [O-][n+]1c(CO)c(CO)[n+]([O-])c2ccccc21 [Dioxydin]
S. aureus 1399/17; [2]
  MIC: 500 µg/mL
[1]
  MECF: 0.5 mg/mL
[1]; [3]
  MECF of cytotoxic action toward normal human dermal fibroblasts: 500 µg/mL
P. aeruginosa MDR 522/17
  MECBF partially inhibiting bacterial biofilms: 1/16
E. coli ESBL 521/17; [2]
  MIC: 15.6 µg/mL

## CC(O)(P(=O)(O)O)P(=O)(O)O [Etidronic acid]
S. aureus 1399/17; Staphylococcus aureus, 1399/17, antiseptics and surfactants, MHB, overnight 37 °C, median of 3–4 independent experiments, prontosan as polyhexanide, read-out: MIC
  MIC: 50000 µg/mL
[1]
  MECF: less than 2.5 mg/mL
[1]; [3]
  MECF of cytotoxic action toward normal human dermal fibroblasts: <2500 µg/mL
[1]; at 2.5 mg/mL
  Cytotoxic effect toward human dermal fibroblasts: higher than 50%
P. aeruginosa MDR 522/17
  MECBF partially inhibiting bacterial biofilms: 1/32
E. coli ESBL 521/17; Escherichia coli, ESBL521/17, antiseptics and surfactants, MHB, overnight 37 °C, median of 3–4 independent experiments, prontosan as polyhexanide, read-out: MIC
  MIC: 50000 µg/mL

## CC(C)C[C@H](NC(=O)[C@H](CCCNC(=N)N)NC(=O)CNC(=O)CNC(=O)[C@@H](N)CCCNC(=N)N)C(=O)N[C@H]1CSSC[C@@H](C(=O)N[C@H](C(=O)NCC(=O)N[C@@H](CCCNC(=N)N)C(N)=O)C(C)C)NC(=O)[C@H](C(C)C)NC(=O)[C@@H]2CSSC[C@H](NC(=O)[C@H](Cc3ccc(O)cc3)NC1=O)C(=O)N[C@@H](CCCNC(=N)N)C(=O)N[C@@H](CCCNC(=N)N)C(=O)N[C@@H](CCCNC(=N)N)C(=O)N[C@@H](Cc1ccccc1)C(=O)N2 [PG-1, protegrin 1]
S. aureus 1399/17; 1399/17, 1 h
  MIC: 0.4 µM
[1]; B = cocamidopropyl betaine
  FECI, toxicity toward fibroblasts: 1.0
[1]; B = cocamidopropyl betaine, experiment 1 of 3 (1st symbol)
  Toxicity of (¼ MEC A + ¼ MEC B) toward human dermal fibroblasts: +
[1]; B = cocamidopropyl betaine, experiment 2 of 3 (2nd symbol)
  Toxicity of (¼ MEC A + ¼ MEC B) toward human dermal fibroblasts: −
[1]; B = cocamidopropyl betaine, experiment 3 of 3 (3rd symbol)
  Toxicity of (¼ MEC A + ¼ MEC B) toward human dermal fibroblasts: −
[1]; B = cocamidopropyl betaine, overall result of 3 independent experiments (square brackets)
  Toxicity of (¼ MEC A + ¼ MEC B) toward human dermal fibroblasts: −
[1]; B = dioxydin
  FECI, toxicity toward fibroblasts: >1.0
[1]; B = poviargolum
  FECI, toxicity toward fibroblasts: 1.0
[1]; B = poviargolum, experiment 1 of 3 (1st symbol)
  Toxicity of (¼ MEC A + ¼ MEC B) toward human dermal fibroblasts: +
[1]; B = poviargolum, experiment 2 of 3 (2nd symbol)
  Toxicity of (¼ MEC A + ¼ MEC B) toward human dermal fibroblasts: −
[1]; B = poviargolum, experiment 3 of 3 (3rd symbol)
  Toxicity of (¼ MEC A + ¼ MEC B) toward human dermal fibroblasts: −
[1]; B = poviargolum, overall result of 3 independent experiments (square brackets)
  Toxicity of (¼ MEC A + ¼ MEC B) toward human dermal fibroblasts: −
[1]; B = prontosan
  FECI, toxicity toward fibroblasts: 1.0
[1]; at 20 μM
  Magnitude of toxic effect toward human dermal fibroblasts: higher than 50%
P. aeruginosa MDR 522/17
  Minimal FECI, AMP + CAPB, biofilm formation: 0.12
  Minimal FECI, AMP + DXD, biofilm formation: 1
  Minimal FECI, AMP + ETA, biofilm formation: 2
  Minimal FECI, AMP + PVG, biofilm formation: 0.25
  Minimal FECI, AMP + PTS, biofilm formation: 0.12
  MECBF partially inhibiting bacterial biofilms: 1/64
E. coli ESBL 521/17; ESBL 521/17, 1 h
  MIC: 0.4 µM

## Cocamidopropyl betaine
S. aureus 1399/17; [2]
  MIC: >50,000 µg/mL
[1]; [3]
  MECF of cytotoxic action toward normal human dermal fibroblasts: 12.5 µg/mL
P. aeruginosa MDR 522/17
  MECBF partially inhibiting bacterial biofilms: 1/512
E. coli ESBL 521/17; [2]
  MIC: >50,000 µg/mL
